Source: the supplement of paper PMC12463676, “Small-molecule dissolution of stress granules by redox modulation benefits ALS models” (Nature Chemical Biology, 2025)

Key:
potassium arsenate = compound: O=[As]([O-])(O)O.[K+] [potassium arsenate]; assay: thermal stability z-score vs DMSO; higher = more thermally stabilized by treatment; conditions: HeLa; arsenate concentration 1 mM
Protocol: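 Cellular thermal proteome profiling in HeLa cells treated with 1 mM arsenate for 1 h (DMSO pretreatment), heated to ten temperatures (37-66.3 °C). Soluble protein was quantified by TMT mass spectrometry relative to DMSO controls; the thermal stability score was transformed to a z-score; mean of n = 3 experiments.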

lipoamide = compound: NC(=O)CCCCC1CCSS1 [lipoamide]; assay: as above; conditions: HeLa, lipoamide concentration 100 µM
Protocol: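 Cellular thermal proteome profiling in HeLa cells. Cells were treated with 100 µM lipoamide for 1 h, with or without 1 mM arsenate for a further 1 h, then heated to ten temperatures (37-66.3 °C), and soluble protein was quantified by TMT mass spectrometry relative to 0.1% DMSO controls. The thermal stability score (sum of log2 fold changes minus the abundance score) was transformed to a z-score; mean of n = 3 experiments.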

[1] = arsenate co-treatment: 1 mM arsenate 1 h
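Also: each temperature applied for 3 min, abundance score taken as mean log2 fold change at the two lowest temperatures, z-score obtained by mean subtraction and division by SD.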

UniProt Q8NEU8, sequence (Q8NEU8 whole entry): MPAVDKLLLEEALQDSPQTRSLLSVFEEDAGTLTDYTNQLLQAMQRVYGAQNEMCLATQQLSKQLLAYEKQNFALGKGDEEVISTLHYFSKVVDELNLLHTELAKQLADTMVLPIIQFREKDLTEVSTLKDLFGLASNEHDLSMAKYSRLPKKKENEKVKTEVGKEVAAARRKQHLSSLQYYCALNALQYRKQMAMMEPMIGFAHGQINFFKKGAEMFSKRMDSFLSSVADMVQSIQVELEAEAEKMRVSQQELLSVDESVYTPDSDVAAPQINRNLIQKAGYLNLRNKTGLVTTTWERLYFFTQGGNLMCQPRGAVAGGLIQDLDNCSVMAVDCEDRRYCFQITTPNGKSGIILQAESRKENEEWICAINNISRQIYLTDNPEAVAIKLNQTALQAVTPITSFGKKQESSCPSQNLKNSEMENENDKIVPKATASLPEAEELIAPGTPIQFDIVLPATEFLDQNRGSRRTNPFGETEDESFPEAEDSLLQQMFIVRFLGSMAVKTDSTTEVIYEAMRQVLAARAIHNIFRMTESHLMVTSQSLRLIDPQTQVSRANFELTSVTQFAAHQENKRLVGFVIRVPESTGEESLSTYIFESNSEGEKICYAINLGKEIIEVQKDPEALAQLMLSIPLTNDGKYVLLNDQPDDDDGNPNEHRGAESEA
UniProt Q93063, sequence (Q93063 whole entry): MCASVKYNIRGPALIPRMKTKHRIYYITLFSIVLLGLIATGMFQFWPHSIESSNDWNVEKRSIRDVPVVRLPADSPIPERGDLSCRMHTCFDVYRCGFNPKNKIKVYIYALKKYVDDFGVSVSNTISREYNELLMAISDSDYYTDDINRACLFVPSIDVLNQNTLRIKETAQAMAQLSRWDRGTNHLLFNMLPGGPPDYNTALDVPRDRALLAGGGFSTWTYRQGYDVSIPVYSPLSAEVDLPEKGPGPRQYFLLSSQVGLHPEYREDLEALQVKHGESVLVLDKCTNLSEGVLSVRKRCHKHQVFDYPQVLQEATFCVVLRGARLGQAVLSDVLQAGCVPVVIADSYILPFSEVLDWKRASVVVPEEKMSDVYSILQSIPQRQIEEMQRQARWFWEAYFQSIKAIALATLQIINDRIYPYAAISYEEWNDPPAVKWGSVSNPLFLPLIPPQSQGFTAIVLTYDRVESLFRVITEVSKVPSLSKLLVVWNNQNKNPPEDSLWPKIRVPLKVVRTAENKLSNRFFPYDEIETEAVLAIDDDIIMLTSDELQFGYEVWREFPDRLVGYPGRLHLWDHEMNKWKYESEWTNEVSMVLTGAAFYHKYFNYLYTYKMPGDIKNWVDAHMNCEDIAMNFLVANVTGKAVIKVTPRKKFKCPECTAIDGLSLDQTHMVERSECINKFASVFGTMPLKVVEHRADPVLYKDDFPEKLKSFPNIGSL
UniProt Q9BRQ8, sequence (Q9BRQ8 whole entry): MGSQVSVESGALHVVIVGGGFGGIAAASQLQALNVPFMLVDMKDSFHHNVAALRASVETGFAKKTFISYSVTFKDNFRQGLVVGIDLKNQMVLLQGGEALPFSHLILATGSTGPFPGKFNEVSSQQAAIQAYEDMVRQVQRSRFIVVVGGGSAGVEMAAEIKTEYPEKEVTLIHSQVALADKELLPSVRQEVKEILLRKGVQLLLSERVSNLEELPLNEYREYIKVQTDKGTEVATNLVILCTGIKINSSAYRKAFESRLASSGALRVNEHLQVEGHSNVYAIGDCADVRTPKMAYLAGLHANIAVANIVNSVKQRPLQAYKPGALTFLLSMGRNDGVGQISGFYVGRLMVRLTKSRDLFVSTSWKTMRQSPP
UniProt O43390, sequence (O43390 whole entry): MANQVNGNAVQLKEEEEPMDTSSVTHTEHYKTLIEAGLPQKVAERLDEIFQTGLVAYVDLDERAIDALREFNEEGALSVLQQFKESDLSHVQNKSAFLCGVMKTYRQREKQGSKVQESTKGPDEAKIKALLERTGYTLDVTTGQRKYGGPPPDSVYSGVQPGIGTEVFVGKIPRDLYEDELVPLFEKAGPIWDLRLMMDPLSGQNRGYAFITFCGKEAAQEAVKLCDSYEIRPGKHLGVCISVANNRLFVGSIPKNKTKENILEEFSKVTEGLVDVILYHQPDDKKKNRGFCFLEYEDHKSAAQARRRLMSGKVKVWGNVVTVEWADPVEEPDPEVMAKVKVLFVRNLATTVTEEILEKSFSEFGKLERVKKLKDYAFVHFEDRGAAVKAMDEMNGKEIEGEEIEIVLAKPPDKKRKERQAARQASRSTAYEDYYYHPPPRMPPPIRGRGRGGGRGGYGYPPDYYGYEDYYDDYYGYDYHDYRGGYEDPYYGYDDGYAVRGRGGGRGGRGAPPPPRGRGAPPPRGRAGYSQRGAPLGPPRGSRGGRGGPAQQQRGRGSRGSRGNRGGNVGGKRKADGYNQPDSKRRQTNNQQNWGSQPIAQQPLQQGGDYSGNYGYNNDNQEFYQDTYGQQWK
UniProt O00408, sequence (O00408 whole entry): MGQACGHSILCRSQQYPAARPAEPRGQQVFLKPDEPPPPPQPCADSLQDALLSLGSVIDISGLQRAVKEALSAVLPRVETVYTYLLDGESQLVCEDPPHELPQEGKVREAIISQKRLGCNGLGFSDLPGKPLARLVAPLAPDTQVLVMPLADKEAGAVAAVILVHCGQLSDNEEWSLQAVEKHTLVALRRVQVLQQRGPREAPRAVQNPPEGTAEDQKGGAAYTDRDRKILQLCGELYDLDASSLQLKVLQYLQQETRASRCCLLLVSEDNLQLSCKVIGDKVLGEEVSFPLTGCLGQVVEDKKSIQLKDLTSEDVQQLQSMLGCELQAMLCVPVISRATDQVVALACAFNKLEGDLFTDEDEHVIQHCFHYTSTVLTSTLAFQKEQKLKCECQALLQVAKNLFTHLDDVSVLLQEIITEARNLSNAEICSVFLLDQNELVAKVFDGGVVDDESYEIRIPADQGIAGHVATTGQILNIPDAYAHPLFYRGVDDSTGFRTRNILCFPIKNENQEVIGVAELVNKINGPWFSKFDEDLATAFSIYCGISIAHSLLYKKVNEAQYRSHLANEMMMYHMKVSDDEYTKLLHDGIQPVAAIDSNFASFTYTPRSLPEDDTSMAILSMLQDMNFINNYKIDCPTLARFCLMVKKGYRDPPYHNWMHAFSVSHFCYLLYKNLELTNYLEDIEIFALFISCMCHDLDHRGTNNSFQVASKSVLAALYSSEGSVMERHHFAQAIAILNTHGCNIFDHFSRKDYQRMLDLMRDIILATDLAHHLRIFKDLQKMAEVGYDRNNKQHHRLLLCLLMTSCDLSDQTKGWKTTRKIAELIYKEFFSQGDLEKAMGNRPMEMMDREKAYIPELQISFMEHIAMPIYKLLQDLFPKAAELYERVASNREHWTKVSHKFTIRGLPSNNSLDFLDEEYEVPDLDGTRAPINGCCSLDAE
UniProt P13489, sequence (P13489 whole entry): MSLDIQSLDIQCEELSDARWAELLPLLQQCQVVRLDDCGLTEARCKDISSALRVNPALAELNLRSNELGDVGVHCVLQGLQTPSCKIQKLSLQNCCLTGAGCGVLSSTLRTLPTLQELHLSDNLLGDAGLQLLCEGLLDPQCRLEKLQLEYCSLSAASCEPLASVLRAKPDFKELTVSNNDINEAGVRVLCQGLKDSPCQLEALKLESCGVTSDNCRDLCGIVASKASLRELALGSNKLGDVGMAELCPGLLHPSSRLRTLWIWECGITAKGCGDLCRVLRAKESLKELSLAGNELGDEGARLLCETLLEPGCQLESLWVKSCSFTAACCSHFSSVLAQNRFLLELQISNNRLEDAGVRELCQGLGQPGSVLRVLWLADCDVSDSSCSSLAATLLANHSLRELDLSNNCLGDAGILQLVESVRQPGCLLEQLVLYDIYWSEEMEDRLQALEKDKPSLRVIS
UniProt Q66K14, sequence (Q66K14 whole entry): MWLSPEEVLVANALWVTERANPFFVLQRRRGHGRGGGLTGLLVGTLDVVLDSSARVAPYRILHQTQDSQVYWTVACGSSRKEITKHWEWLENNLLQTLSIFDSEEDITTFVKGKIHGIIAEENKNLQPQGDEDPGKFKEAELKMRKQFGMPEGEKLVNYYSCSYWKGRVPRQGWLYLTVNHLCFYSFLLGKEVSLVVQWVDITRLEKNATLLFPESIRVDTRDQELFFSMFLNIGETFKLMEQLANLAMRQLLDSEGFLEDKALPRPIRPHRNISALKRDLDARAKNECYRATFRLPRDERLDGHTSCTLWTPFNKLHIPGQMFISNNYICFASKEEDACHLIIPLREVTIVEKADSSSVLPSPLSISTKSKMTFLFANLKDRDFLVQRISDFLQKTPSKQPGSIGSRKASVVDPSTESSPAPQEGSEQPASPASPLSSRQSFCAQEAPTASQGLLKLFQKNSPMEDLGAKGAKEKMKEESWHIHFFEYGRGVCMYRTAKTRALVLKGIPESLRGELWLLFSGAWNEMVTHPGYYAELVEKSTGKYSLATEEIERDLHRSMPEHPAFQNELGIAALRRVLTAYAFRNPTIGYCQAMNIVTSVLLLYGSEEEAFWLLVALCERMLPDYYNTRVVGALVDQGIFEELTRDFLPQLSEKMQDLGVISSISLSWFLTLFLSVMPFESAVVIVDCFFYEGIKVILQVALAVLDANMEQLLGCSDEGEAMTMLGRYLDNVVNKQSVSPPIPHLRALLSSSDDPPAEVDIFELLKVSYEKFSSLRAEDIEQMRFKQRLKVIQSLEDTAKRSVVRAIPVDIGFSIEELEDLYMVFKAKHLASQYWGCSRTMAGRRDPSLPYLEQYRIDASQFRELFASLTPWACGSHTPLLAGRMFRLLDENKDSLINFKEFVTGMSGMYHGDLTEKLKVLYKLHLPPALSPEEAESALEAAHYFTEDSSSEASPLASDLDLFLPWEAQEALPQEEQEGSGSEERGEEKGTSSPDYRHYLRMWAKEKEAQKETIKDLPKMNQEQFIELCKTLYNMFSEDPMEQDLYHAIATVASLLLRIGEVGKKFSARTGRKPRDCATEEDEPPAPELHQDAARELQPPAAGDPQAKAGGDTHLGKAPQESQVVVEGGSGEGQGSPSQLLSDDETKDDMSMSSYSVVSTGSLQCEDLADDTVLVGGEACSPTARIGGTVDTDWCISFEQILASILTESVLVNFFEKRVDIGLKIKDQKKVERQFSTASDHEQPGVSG

Target	thermal stability z-score (potassium arsenate)	thermal stability z-score (lipoamide; [1])	thermal stability z-score (lipoamide; arsenate co-treatment: none)
APPL2 (UniProt Q8NEU8)	-0.0173	0.0353	-0.132
HPCAL1 (UniProt P37235)	0.342	1.09	1.31
TRAPPC5 (UniProt Q8IUR0)	0.00376	1.28	-0.246
HSD17B11 (UniProt Q8NBQ5)	0.265	0.563	0.342
ZFAND6 (UniProt Q6FIF0)	-0.0508	0.56	0.219
NAA50 (UniProt Q9GZZ1)	0.502	0.872	0.589
PDE2A (UniProt O00408)	-0.355	-0.284	0.382
HMGB2 (UniProt P26583)	0.175	0.55	0.687
UBR2 (UniProt Q8IWV8)	0.444	0.13	0.182
PEO1 (UniProt Q96RR1)	0.122	-0.0405	0.0511
MRPL47 (UniProt Q9HD33)	0.268	-0.428	-0.0176
BAZ1A (UniProt Q9NRL2)	-0.236	-0.258	0.0591
TUBGCP3 (UniProt Q96CW5)	0.123	0.238	0.127
PUM1 (UniProt Q14671)	-0.174	-0.249	-0.0302
MCL1 (UniProt Q07820)	1.27	0.483	0.838
LPIN2 (UniProt Q92539)	0.00612	0.528	0.214
HNRNPR (UniProt O43390)	-1.96	0.306	-0.456
SMN1 (UniProt Q16637)	-0.434	0.304	0.798
SLC39A6 (UniProt Q13433)	0.868	-0.119	0.454
FBXL16 (UniProt Q8N461)	-0.0763	-0.137	0.0698
TESC (UniProt Q96BS2)	0.846	0.565	0.315
MME (UniProt P08473)	0.585	-0.46	-1.37
ARHGEF1 (UniProt Q92888)	0.0617	-0.381	-0.242
IPO11 (UniProt Q9UI26)	-0.0713	-0.322	-0.104

Target	thermal stability z-score (potassium arsenate)	thermal stability z-score (lipoamide; [1])	thermal stability z-score (lipoamide; arsenate co-treatment: none)
PACSIN2 (UniProt Q9UNF0)	0.638	0.246	0.134
EXT2 (UniProt Q93063)	-0.573	-1.16	-0.953
HIP1 (UniProt O00291)	0.215	0.0784	0.0537
KDM3B (UniProt Q7LBC6)	0.0976	0.258	-0.0129
MRPL41 (UniProt Q8IXM3)	0.448	-0.202	0.303
TBC1D9B (UniProt Q66K14)	-0.401	-0.357	-0.158
PPP4R2 (UniProt Q9NY27)	-0.136	-0.326	0.221
TACC1 (UniProt O75410)	0.526	0.293	0.0761
PPP1R15B (UniProt Q5SWA1)	-0.0349	-0.102	-0.0322
ATP2B4 (UniProt P23634)	-1.05	-0.147	-0.0358
FAM219A (UniProt Q8IW50)	-9.1	-1.69	2.4
MND1 (UniProt Q9BWT6)	0.296	-0.235	-0.0119
CSTF2 (UniProt P33240)	0.756	1.09	0.979
MDC1 (UniProt Q14676)	-0.363	0.374	0.00253
MRPL11 (UniProt Q9Y3B7)	0.0228	-0.211	0.169
NFAT5 (UniProt O94916)	1.37	0.48	0.0594
SMAP1 (UniProt Q8IYB5)	-0.139	-0.131	-0.152
OGDH (UniProt Q02218)	-0.531	0.182	0.151
PSMG1 (UniProt O95456)	4.18	1.07	0.507
SNRPC (UniProt P09234)	0.905	0.137	0.0659
SERPINB1 (UniProt P30740)	0.23	0.391	0.191
TACO1 (UniProt Q9BSH4)	-0.113	0.0383	-0.0229
LATS1 (UniProt O95835)	-0.0262	-0.183	-0.189
PTBP1 (UniProt P26599)	0.184	1.1	1.82

Target	thermal stability z-score (potassium arsenate)	thermal stability z-score (lipoamide; [1])	thermal stability z-score (lipoamide; arsenate co-treatment: none)
NDUFS3 (UniProt O75489)	-0.466	-0.384	0.139
NANP (UniProt Q8TBE9)	-0.582	0.191	0.0578
COX15 (UniProt Q7KZN9)	0.257	-0.206	-0.206
WDR1 (UniProt O75083)	-0.59	0.454	0.0649
CMC1 (UniProt Q7Z7K0)	0.65	0.741	-0.328
ESRP2 (UniProt Q9H6T0)	0.0815	-0.121	0.00175
PTMS (UniProt P20962)	-0.629	0.606	0.808
MYL12A|MYL12B	-0.0176	0.352	0.436
MRPL51 (UniProt Q4U2R6)	-0.0101	-0.114	0.334
RNH1 (UniProt P13489)	-4.26	0.376	0.478
RCN3 (UniProt Q96D15)	-0.0957	-0.715	-0.986
KCTD5 (UniProt Q9NXV2)	-1.43	-1.92	-1.4
YIPF5 (UniProt Q969M3)	-0.18	-0.255	-0.344
GEMIN2 (UniProt O14893)	-0.345	-0.139	-0.0485
RACGAP1 (UniProt Q9H0H5)	-0.148	-0.198	-0.0575
PIK3CA (UniProt P42336)	-0.45	-0.275	-0.149
PRKDC (UniProt P78527)	-0.559	0.373	0.169
RBM39 (UniProt Q14498)	-0.546	-0.398	0.0967
ZNF706 (UniProt Q9Y5V0)	0.0846	1.04	0.371
AIFM2 (UniProt Q9BRQ8)	0.776	0.556	-0.298
UNC13B (UniProt O14795)	-0.156	-0.0346	-0.119
ACAD8 (UniProt Q9UKU7)	-0.989	0.0722	-0.0632
YWHAQ (UniProt P27348)	0.199	0.857	0.727
